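A five-concentration, 48-hour dose response in 96-well plates underlies each endpoint, interpolated linearly between surrounding concentrations. At the GI50, growth is halved. TGI denotes the concentration required for complete inhibition of growth.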
Key:
Assay in all cases: DTP human tumour cell line panel, 48 h
[1] = test system: 786-0 renal
[2] = test system: A498 renal
[3] = test system: A549 NSCLC
[4] = test system: ACHN renal
[5] = test system: BT-549 breast
[6] = test system: CAKI-1 renal
[7] = test system: CCRF-CEM leukemia
[8] = test system: COLO 205 colon
[9] = test system: DU-145 prostate
[10] = test system: EKVX NSCLC
[11] = test system: HCC-2998 colon
[12] = test system: HCT-15 colon
[13] = test system: HL-60(TB) leukemia
[14] = test system: HOP-62 NSCLC
[15] = test system: HOP-92 NSCLC
[16] = test system: HS 578T breast
[17] = test system: HT29 colon
[18] = test system: IGROV1 ovarian
[19] = test system: K-562 leukemia
[20] = test system: KM12 colon
[21] = test system: LOX IMVI melanoma
[22] = test system: M14 melanoma
[23] = test system: MALME-3M melanoma
[24] = test system: MCF7 breast
[25] = test system: MDA-MB-231 breast
[26] = test system: MOLT-4 leukemia
[27] = test system: NCI-H226 lung
[28] = test system: NCI-H23 lung
[29] = test system: NCI-H460 lung
[30] = test system: NCI-H522 lung
[31] = test system: NCI/ADR-RES ovarian
[32] = test system: OVCAR-3 ovarian
[33] = test system: OVCAR-4 ovarian
[34] = test system: OVCAR-5 ovarian
[35] = test system: OVCAR-8 ovarian
[36] = test system: PC-3 prostate
[37] = test system: RPMI-8226 leukemia
[38] = test system: RXF 393 renal
[39] = test system: SF-268 CNS
[40] = test system: SF-295 CNS
[41] = test system: SF-539 CNS
[42] = test system: SK-MEL-2 melanoma
[43] = test system: SK-MEL-28 melanoma
[44] = test system: SK-MEL-5 melanoma
[45] = test system: SK-OV-3 ovarian
[46] = test system: SN12C renal
[47] = test system: SNB-19 CNS
[48] = test system: SNB-75 CNS
[49] = test system: SW-620 colon
[50] = test system: T-47D breast
[51] = test system: TK-10 renal
[52] = test system: U251 CNS
[53] = test system: UACC-257 melanoma
[54] = test system: UACC-62 melanoma
[55] = test system: UO-31 renal

## COc1cc(Nc2ncc3c(n2)-c2ccc(Cl)cc2C(c2c(F)cccc2OC)=NC3)ccc1C(=O)O
[1]
  GI50: 4.4 µM
  TGI: > 83.6 µM
[2]
  GI50: 0.211 µM
  TGI: 2.55 µM
[3]
  GI50: 0.505 µM
  TGI: 37.8 µM
[4]
  GI50: 2.34 µM
  TGI: 55.1 µM
[5]
  GI50: 5.88 µM
  TGI: > 81.1 µM
[6]
  GI50: 1.66 µM
  TGI: 29.3 µM
[7]
  GI50: 0.579 µM
  TGI: > 65.9 µM
[8]
  GI50: 0.0651 µM
  TGI: 16.7 µM
[9]
  GI50: 17.6 µM
  TGI: > 87.5 µM
[10]
  GI50: 13.1 µM
  TGI: 69.1 µM
[11]
  GI50: 19.2 µM
  TGI: > 100 µM
[12]
  GI50: 4.77 µM
  TGI: > 100 µM
[13]
  GI50: 16.5 µM
  TGI: > 68 µM
[14]
  GI50: 5.08 µM
  TGI: 58.5 µM
[15]
  GI50: 2.35 µM
  TGI: 14.1 µM
[16]
  GI50: 3.3 µM
  TGI: > 71.3 µM
[17]
  GI50: 2.24 µM
  TGI: 23.8 µM
[18]
  GI50: 2.19 µM
  TGI: 19.3 µM
[19]
  GI50: 5.24 µM
  TGI: > 100 µM
[20]
  GI50: 0.26 µM
  TGI: > 92.9 µM
[21]
  GI50: 0.91 µM
  TGI: 21.3 µM
[22]
  GI50: 13.6 µM
  TGI: 42.8 µM
[23]
  GI50: 16.9 µM
  TGI: > 89.1 µM
[24]
  GI50: 0.0469 µM
  TGI: > 100 µM
[25]
  GI50: 3.07 µM
  TGI: > 100 µM
[26]
  GI50: 8.09 µM
  TGI: > 75.9 µM
[27]
  GI50: 2.06 µM
  TGI: 18.1 µM
[28]
  GI50: 10.9 µM
  TGI: 65.1 µM
[29]
  GI50: 0.0412 µM
  TGI: > 83.6 µM
[30]
  GI50: 0.501 µM
  TGI: 3.88 µM
[31]
  GI50: 1.38 µM
  TGI: > 100 µM
[32]
  GI50: 7.33 µM
  TGI: 34.4 µM
[33]
  GI50: 3.7 µM
  TGI: > 86.2 µM
[34]
  GI50: 7.54 µM
  TGI: > 77.7 µM
[35]
  GI50: 8.94 µM
  TGI: > 100 µM
[36]
  GI50: 7.87 µM
  TGI: 70.4 µM
[37]
  GI50: 12 µM
  TGI: > 65 µM
[38]
  GI50: 1.59 µM
  TGI: 13.1 µM
[39]
  GI50: 9.51 µM
  TGI: 92.8 µM
[40]
  GI50: 0.0719 µM
  TGI: > 64.1 µM
[41]
  GI50: 0.503 µM
  TGI: 20 µM
[42]
  GI50: 13.4 µM
  TGI: 38 µM
[43]
  GI50: 13.2 µM
  TGI: > 92 µM
[44]
  GI50: 12.3 µM
  TGI: 29.1 µM
[45]
  GI50: 10.6 µM
  TGI: 44 µM
[46]
  GI50: 4.04 µM
  TGI: > 90.4 µM
[47]
  GI50: 13.3 µM
  TGI: > 100 µM
[48]
  GI50: 2.23 µM
  TGI: 24.6 µM
[49]
  GI50: 1.74 µM
  TGI: > 100 µM
[50]
  GI50: 12.1 µM
  TGI: > 91.2 µM
[51]
  GI50: 4.61 µM
  TGI: 24.4 µM
[52]
  GI50: 2.74 µM
  TGI: 33.3 µM
[53]
  GI50: 18.2 µM
  TGI: > 92.5 µM
[54]
  GI50: 3.9 µM
  TGI: 30.1 µM
[55]
  GI50: 2.57 µM
  TGI: 21.4 µM

Reference: PubChem BioAssay (NCI)
